Assay results published in publication PMC8700061, “Fragment-Sized and Bidentate (Immuno)Proteasome Inhibitors Derived from Cysteine and Threonine Targeting Warheads” (Cells, 2021).

Legend:
hAChE = target: T1, hAChE (Homo sapiens, UniProt P22303); experiment: Cholinesterase assay (Ellman), hAChE; assay type: biochemical; details: 30 min pre-incubation, read-out: Residual activity [%] ± SD, hAChE
T1 construct: gift of Xavier Brazzolotto, Florian Nachon and José Dias (IRBA, Brétigny-sur-Orge, France)
T1 sequence (P22303 32-614): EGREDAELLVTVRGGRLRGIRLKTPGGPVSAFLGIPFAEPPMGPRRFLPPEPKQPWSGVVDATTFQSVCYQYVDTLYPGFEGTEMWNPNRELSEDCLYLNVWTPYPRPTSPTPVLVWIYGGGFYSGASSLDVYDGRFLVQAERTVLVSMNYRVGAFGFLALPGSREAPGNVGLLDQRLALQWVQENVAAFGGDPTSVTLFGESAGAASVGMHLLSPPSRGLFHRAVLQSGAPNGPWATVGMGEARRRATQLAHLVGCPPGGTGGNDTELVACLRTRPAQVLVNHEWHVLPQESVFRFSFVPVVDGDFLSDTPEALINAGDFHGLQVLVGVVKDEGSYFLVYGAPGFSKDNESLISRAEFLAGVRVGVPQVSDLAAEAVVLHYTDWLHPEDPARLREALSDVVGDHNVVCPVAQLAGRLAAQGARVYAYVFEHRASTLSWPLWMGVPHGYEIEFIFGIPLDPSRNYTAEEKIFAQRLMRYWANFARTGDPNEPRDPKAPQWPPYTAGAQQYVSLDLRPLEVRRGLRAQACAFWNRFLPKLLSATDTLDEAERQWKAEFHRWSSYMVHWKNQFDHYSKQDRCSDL
Description: (§1) The activity of the compounds against ChEs, namely hAChE and hBChE, was determined by the Ellman method. 5,5′-Dithiobis-2-nitrobenzoic acid (Ellman’s reagent; DTNB), butyrylthiocholine iodide, and acetylthiocholine iodides were from Sigma-Aldrich. Recombinant hAChE and hBChE were kindly provided by Xavier Brazzolotto, Florian Nachon, and José Dias (IRBA, Brétigny-sur-Orge, France). Reactions were performed in a final volume of 300 µL of 0.1 M phosphate-buffered solution, pH = 8.0, containing 370 µM DTNB, 500 μM butyrylthiocholine/acetylthiocholine iodide, and approximately 1 nM or 50–100 pM hBChE or hAChE, respectively. The reactions were started by the addition of the substrate after 30-min pre-incubation at room temperature. The final organic solvent (DMSO) content was always 1%. The formation of the yellow 5-thio-2-nitrobenzoate anion was monitored for 2 min at 412 nm, using a 96-well microplate reader (Synergy HT, BioTek Instruments, Inc., Santa Clara, CA, USA). The initial velocities in the presence (vi) and absence (vo) of the test compounds were calculated. Inhibitory potencies were expressed as residual activities (RA), according to the equation RA = (vi − b)/(vo − b), where b is the blank value.

hBChE = target: T2, hBChE (Homo sapiens, UniProt P06276); experiment: Cholinesterase assay (Ellman), hBChE; assay type: biochemical; details: 30 min pre-incubation, read-out: Residual activity [%] ± SD, hBChE
T2 construct: gift of Xavier Brazzolotto, Florian Nachon and José Dias (IRBA, Brétigny-sur-Orge, France)
T2 sequence (P06276 29-602): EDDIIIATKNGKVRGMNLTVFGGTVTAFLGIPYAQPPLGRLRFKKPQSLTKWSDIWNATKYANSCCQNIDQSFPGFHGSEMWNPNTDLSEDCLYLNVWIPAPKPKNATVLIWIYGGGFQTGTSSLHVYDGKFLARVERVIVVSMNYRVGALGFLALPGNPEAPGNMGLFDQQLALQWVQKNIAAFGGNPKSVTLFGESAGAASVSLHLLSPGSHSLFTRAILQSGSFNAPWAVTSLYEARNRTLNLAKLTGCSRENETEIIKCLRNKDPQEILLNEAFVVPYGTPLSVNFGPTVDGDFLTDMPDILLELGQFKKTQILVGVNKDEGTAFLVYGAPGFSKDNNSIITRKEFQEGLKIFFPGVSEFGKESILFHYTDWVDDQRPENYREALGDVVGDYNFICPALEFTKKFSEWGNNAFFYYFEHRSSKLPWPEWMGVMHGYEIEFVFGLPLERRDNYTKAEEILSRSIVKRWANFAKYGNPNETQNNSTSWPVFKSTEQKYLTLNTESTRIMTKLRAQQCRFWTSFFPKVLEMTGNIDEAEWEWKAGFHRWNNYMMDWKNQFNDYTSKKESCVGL
Description: as §1

[1] = HPLC-based stability assay in PBS; assay type: physicochemical; details: PBS pH 7.4
Description: (§2) GSH reactivity assay was performed as described by Petri et al.; 500 μM solution of compound (PBS buffer pH 7.4, 10% MeCN, 250 μL) with 200 μM solution of indoprofen as internal standard were added to 10 mM GSH solution (dissolved in PBS buffer, 250 μL) in a 1:1 ratio. The final concentration was 250 μM compound, 100 μM indoprofen, 5 mM GSH and 5% MeCN (500 μL). The final mixture was analyzed by HPLC after 0, 1, 2, 4, 8, 12, 24, 48, and 72 h. The degradation kinetics were also studied using the method described in [24], except that pure PBS buffer was used instead of GSH solution. In this experiment, the final concentration of the mixture was 250 μM fragment, 100 μM indoprofen and 5% MeCN. The area under the curve (AUC) values were determined by integrating the HPLC spectra and then corrected with the internal standard.

GSH = experiment: HPLC-based GSH reactivity assay; assay type: physicochemical; details: 5 mM glutathione (GSH) in PBS buffer; 250 µM compound, 5 mM GSH, PBS pH 7.4; read-out: Reactivity with GSH (HPLC-based assay), t1/2
Description: as §2, with “The final concentration was 250 μM compound, 100 μM indoprofen, 5 mM GSH and 5% MeCN (500 μL).” left out, “In this experiment, the final concentration of the mixture was 250 μM fragment, 100 μM indoprofen and 5% MeCN.” left out

`CC(=O)Oc1ccc2oc(C#N)nc2c1` [Compound 15] showed a remaining activity at 100 µM (hAChE) of 33 ± 2% and a remaining activity at 100 µM (hBChE) of over 50%.

In the case of `CC(C)C[C@H](NC(=O)Cc1ccc2oc(C#N)nc2c1)B(O)O` [Compound 40], the remaining activity at 100 µM (hAChE) is reported as 46 ± 1% and the remaining activity at 100 µM (hBChE) is reported as 33 ± 1%.

For `CC(=O)Oc1cccc2oc(C#N)nc12` [Compound 14], the remaining activity at 100 µM (hAChE) was 11 ± 2% and the remaining activity at 100 µM (hBChE) was over 50%.

With `CC(C)C[C@H](NC(=O)CCn1c(C#N)nc2cccc(Cl)c21)B1O[C@@H]2C[C@@H]3C[C@@H](C3(C)C)[C@]2(C)O1` [Compound 38] the remaining activity at 100 µM (hAChE) was over 50%, the “Stability in Buffer (HPLC-based assay)” value [1] was “stable ^b,c” and the remaining activity at 100 µM (hBChE) was over 50%.

For `CC(C)C[C@H](NC(=O)CCCn1c(C#N)nc2ccccc21)B1O[C@@H]2C[C@@H]3C[C@@H](C3(C)C)[C@]2(C)O1` [Compound 31], the remaining activity at 100 µM (hAChE) was over 50%, the “Stability in Buffer (HPLC-based assay)” value [1] was “stable ^b,c” and the remaining activity at 100 µM (hBChE) was over 50%.

For `CC(C)C[C@H](NC(=O)CCn1c(C#N)nc2ccccc21)B(O)O` [Compound 34], the remaining activity at 100 µM (hAChE) was over 50% and the remaining activity at 100 µM (hBChE) was over 50%.

With `COc1cccc2oc(C#N)nc12` [Compound 6] the remaining activity at 100 µM (hAChE) was over 50%, the half-life at 250 µM (GSH) was under 3 min and the “Stability in Buffer (HPLC-based assay)” value [1] was “stable ^c,d”. It also gave a remaining activity at 100 µM (hBChE) of 36 ± 1%.

`N#Cc1nc2cc(O)ccc2o1` [Compound 11] showed a remaining activity at 100 µM (hAChE) of 27 ± 1% and a remaining activity at 100 µM (hBChE) of over 50%.

In the case of `CC(C)C[C@H](NC(=O)CCn1c(C#N)nc2ccccc21)B1O[C@@H]2C[C@@H]3C[C@@H](C3(C)C)[C@]2(C)O1` [Compound 30], the remaining activity at 100 µM (hAChE) is reported as over 50%, the “Stability in Buffer (HPLC-based assay)” value [1] is reported as “stable ^b,c” and the remaining activity at 100 µM (hBChE) is reported as over 50%.

Work on `N#Cc1nc2c(O)cccc2o1` [Compound 10] yielded a remaining activity at 100 µM (hAChE) of 27 ± 2% and a remaining activity at 100 µM (hBChE) of over 50%.

With `CC(C)C[C@H](NC(=O)Cc1ccc2oc(C#N)nc2c1)B1O[C@@H]2C[C@@H]3C[C@@H](C3(C)C)[C@]2(C)O1` [Compound 39] the remaining activity at 100 µM (hAChE) was over 50%, the half-life at 250 µM (GSH) was 3 to 60 min and the “Stability in Buffer (HPLC-based assay)” value [1] was “stable ^b,c”. The remaining activity at 100 µM (hBChE) was 45 ± 1%.

With `CC(C)C[C@H](NC(=O)CCCn1c(C#N)nc2ccccc21)B(O)O` [Compound 35] the remaining activity at 100 µM (hAChE) was over 50% and the remaining activity at 100 µM (hBChE) was over 50%.

In the case of `N#Cc1nc2cccc(O)c2o1` [Compound 13], the remaining activity at 100 µM (hAChE) is reported as 25 ± 1% and the remaining activity at 100 µM (hBChE) is reported as over 50%.

With `C=Cc1nc(CC(=O)N[C@@H](CC(C)C)B2O[C@@H]3C[C@@H]4C[C@@H](C4(C)C)[C@]3(C)O2)cs1` [Compound 28] the remaining activity at 100 µM (hAChE) was over 50% and the remaining activity at 100 µM (hBChE) was 27 ± 3%.
